Laboratory results from ChEMBL document CHEMBL5291721, “A preclinical secondary pharmacology resource illuminates target-adverse drug reaction associations of marketed drugs” (Nat Commun, 2023).

Columns and labels:
[1] = biological target: Motilin receptor (Homo sapiens, UniProt O43193)
[2] = biological target: T1, Muscarinic acetylcholine receptor M2 (Homo sapiens, UniProt P08172); assay type: functional, cell-based
T1 sequence (P08172 whole entry): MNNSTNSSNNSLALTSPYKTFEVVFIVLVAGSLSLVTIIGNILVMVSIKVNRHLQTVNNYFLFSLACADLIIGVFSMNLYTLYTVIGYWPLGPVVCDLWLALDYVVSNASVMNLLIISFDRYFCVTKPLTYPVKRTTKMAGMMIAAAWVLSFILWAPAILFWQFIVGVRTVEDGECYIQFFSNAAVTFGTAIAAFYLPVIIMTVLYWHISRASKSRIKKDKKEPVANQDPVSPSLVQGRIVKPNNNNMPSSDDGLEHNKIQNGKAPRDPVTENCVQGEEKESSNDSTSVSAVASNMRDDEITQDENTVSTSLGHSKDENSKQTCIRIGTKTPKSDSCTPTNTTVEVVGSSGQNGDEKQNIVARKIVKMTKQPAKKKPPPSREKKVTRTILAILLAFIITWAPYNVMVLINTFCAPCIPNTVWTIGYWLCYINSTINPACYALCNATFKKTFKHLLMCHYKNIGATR

[3] = biological target: 3',5'-cyclic-AMP phosphodiesterase 4D (Homo sapiens, UniProt Q08499); assay type: functional
[4] = biological target: T2, 5-hydroxytryptamine receptor 3A (Homo sapiens, UniProt P46098); assay type: functional
T2 sequence (P46098 whole entry): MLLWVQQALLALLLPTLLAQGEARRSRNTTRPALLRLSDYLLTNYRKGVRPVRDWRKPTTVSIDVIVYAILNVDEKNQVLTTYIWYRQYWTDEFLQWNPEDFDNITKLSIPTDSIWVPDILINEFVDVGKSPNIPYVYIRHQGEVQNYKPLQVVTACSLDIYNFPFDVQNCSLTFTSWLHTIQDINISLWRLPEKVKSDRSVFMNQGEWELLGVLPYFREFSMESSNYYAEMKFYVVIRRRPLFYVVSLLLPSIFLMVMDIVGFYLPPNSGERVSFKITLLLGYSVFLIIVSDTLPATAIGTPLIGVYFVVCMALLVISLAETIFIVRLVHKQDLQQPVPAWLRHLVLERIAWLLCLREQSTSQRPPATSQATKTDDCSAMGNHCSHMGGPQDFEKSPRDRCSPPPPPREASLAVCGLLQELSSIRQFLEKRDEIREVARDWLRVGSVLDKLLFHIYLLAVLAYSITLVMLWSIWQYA

[5] = biological target: cGMP-inhibited 3',5'-cyclic phosphodiesterase 3A (Homo sapiens, UniProt Q14432); assay type: functional
[6] = biological target: T3, Equilibrative nucleoside transporter 1 (Homo sapiens, UniProt Q99808)
T3 sequence (Q99808 whole entry): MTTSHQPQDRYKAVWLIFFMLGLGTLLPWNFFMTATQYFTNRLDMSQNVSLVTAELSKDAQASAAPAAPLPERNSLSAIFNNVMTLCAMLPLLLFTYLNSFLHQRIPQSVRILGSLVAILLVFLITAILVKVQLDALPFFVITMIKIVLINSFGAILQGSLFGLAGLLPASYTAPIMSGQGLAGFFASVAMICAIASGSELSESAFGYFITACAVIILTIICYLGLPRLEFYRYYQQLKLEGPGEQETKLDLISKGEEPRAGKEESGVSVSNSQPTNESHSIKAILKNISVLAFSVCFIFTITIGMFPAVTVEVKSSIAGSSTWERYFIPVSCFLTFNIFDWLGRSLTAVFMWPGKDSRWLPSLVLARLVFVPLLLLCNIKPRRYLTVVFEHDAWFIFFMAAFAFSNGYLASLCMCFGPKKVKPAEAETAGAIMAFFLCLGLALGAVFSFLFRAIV

[7] = biological target: T4, Type-1 angiotensin II receptor (Homo sapiens, UniProt P30556)
T4 sequence (P30556 whole entry): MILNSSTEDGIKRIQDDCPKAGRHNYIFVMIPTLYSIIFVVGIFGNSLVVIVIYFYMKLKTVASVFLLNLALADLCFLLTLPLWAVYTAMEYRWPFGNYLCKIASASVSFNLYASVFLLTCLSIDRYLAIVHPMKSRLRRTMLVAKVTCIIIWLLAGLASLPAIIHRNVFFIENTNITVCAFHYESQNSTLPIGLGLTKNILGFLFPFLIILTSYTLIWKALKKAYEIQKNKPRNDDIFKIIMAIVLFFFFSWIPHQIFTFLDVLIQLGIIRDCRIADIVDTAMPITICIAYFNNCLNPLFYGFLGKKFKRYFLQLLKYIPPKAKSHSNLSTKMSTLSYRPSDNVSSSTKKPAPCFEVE

[8] = biological target: Adenosine receptor A2a (Homo sapiens, UniProt P29274)
[9] = biological target: Beta-1 adrenergic receptor (Homo sapiens, UniProt P08588); assay type: functional
[10] = biological target: T5, Amine oxidase [flavin-containing] A (Homo sapiens, UniProt P21397); assay type: functional
T5 sequence (P21397 whole entry): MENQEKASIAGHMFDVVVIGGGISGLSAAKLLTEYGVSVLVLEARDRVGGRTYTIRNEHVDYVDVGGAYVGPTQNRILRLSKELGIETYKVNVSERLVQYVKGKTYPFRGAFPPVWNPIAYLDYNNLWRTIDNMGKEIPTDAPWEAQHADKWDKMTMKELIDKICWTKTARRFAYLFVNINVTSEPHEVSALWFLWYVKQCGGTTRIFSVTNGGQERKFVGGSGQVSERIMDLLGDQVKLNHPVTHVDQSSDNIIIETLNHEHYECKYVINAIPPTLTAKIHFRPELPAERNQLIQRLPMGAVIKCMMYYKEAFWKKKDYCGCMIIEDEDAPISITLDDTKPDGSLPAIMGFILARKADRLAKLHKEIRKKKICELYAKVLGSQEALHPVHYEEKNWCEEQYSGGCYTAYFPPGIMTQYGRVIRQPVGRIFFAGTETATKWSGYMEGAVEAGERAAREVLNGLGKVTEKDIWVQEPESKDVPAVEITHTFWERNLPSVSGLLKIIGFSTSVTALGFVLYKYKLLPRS

[11] = biological target: Growth hormone secretagogue receptor type 1 (Homo sapiens, UniProt Q92847)
Further: assay procedure not described here.

Sequence of Motilin receptor (O43193 whole entry): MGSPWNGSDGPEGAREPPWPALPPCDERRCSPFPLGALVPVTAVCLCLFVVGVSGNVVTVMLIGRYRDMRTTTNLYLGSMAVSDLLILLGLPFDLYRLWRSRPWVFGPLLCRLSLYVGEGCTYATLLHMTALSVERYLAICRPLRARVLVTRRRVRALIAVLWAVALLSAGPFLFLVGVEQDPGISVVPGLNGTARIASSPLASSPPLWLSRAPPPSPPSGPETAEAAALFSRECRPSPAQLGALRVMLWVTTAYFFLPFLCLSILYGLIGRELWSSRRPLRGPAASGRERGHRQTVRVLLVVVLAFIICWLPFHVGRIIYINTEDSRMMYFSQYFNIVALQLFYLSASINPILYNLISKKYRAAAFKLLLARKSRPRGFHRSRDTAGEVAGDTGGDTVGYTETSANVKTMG
Sequence of Beta-1 adrenergic receptor (P08588 whole entry): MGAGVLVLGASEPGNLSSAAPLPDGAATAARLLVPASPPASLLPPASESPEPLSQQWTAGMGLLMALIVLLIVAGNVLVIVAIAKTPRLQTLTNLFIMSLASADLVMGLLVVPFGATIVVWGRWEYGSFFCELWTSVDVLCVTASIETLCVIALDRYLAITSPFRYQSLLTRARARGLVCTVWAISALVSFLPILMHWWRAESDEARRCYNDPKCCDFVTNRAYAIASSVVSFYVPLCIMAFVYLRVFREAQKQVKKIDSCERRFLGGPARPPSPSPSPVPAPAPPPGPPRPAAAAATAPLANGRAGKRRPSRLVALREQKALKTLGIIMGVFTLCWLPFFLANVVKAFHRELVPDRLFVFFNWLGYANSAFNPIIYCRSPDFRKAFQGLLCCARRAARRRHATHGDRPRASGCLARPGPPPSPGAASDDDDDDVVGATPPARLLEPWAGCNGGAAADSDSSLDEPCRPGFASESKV
Sequence of cGMP-inhibited 3',5'-cyclic phosphodiesterase 3A (Q14432 whole entry): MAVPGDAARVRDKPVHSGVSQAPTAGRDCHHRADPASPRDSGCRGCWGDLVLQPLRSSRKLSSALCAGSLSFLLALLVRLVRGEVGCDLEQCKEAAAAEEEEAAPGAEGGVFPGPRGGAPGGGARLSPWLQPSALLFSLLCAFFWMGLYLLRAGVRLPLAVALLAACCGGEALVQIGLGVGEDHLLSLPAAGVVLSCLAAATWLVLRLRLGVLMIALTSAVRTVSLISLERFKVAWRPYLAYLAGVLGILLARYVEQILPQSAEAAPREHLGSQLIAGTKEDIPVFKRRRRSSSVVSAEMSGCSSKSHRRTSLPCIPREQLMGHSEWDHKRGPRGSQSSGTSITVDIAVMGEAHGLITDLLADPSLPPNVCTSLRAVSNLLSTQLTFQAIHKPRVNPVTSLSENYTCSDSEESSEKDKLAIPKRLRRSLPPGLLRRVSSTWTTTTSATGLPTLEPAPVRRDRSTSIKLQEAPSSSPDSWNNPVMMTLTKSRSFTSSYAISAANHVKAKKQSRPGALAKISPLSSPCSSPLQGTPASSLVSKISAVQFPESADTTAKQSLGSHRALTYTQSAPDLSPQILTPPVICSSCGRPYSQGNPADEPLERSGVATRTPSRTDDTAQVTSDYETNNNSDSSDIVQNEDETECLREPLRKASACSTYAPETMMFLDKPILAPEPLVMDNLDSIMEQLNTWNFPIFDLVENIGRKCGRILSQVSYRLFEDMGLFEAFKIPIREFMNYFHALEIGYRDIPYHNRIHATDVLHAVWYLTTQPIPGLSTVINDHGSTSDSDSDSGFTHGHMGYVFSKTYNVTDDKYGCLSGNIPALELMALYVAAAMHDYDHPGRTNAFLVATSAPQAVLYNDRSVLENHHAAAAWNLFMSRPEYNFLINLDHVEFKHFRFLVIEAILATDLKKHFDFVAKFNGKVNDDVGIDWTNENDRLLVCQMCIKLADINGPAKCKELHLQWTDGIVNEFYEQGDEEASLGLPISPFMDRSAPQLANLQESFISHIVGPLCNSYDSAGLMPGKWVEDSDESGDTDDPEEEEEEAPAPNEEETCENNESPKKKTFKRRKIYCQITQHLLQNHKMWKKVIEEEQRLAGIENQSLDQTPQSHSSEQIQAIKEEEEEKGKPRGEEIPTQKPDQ
Sequence of Growth hormone secretagogue receptor type 1 (Q92847 whole entry): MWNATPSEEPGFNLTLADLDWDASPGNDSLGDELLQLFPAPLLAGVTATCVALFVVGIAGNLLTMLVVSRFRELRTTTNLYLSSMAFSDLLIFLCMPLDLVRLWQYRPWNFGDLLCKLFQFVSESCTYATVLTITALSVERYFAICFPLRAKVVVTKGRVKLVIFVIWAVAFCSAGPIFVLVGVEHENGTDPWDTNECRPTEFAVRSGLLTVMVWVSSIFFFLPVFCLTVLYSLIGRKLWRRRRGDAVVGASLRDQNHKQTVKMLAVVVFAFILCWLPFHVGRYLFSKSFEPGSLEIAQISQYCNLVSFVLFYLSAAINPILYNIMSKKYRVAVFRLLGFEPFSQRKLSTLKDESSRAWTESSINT
Sequence of Adenosine receptor A2a (P29274 whole entry): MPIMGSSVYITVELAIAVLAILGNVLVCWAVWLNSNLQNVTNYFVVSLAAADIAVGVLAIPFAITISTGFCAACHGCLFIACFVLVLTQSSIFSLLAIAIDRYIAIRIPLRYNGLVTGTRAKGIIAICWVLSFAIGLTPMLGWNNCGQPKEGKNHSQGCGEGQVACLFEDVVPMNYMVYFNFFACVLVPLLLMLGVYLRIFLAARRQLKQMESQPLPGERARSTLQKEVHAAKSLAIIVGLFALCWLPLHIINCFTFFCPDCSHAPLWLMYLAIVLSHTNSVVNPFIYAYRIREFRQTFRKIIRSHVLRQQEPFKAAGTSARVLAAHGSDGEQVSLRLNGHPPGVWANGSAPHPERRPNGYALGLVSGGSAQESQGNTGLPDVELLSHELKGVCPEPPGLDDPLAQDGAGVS
Sequence of 3',5'-cyclic-AMP phosphodiesterase 4D (Q08499 whole entry): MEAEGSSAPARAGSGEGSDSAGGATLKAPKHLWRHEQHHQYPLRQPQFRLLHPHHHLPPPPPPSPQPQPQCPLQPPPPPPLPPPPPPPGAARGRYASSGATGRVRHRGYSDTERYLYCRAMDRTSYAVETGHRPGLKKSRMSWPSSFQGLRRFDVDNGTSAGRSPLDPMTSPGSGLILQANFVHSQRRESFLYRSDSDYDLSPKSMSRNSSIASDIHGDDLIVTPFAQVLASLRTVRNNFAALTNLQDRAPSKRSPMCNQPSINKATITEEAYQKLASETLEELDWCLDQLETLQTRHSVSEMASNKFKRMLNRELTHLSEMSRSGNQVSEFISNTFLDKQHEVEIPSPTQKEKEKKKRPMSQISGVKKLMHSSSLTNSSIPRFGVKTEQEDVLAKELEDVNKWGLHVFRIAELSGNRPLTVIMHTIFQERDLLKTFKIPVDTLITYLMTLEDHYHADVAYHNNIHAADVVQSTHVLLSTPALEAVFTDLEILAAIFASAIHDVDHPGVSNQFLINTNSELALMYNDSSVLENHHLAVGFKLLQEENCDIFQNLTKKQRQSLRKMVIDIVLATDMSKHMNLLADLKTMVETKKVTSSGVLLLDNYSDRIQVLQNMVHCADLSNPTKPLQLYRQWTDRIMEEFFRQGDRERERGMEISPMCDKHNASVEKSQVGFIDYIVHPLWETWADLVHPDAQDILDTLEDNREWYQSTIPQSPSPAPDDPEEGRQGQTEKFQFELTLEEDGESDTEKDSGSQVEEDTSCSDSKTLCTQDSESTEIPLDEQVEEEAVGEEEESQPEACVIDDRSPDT

Structure (SMILES) | AC50 [1] [µM] | AC50 [2] [µM] | AC50 [3] [µM] | AC50 [4] [µM] | AC50 [5] [µM] | AC50 [6] [µM] | AC50 [7] [µM] | AC50 [8] [µM] | AC50 [9] [µM] | AC50 [10] [µM] | AC50 [11] [µM]
CNC(=O)c1ccccc1Sc1ccc2c(/C=C/c3ccccn3)n[nH]c2c1 [AXITINIB] | > 30 | 4.2 | > 30 | > 30 | > 30 | > 30 | > 30 | > 30 | > 30 | > 30 | > 30
CC1(C)NC(=O)N(c2ccc([N+](=O)[O-])c(C(F)(F)F)c2)C1=O [NILUTAMIDE] | > 30 | > 30 | 28 | > 30 | > 30 | > 30 | > 30 | > 30 | > 30 | > 30 | > 30
CN(C)CCC=C1c2ccccc2C(C)(C)c2ccccc21 | 14 | 0.25 | > 30 | 4.4 | > 30 | > 30 | > 30 | > 30 | 5.2 | > 30 | 22
COc1ccc(CC(C)(C)NC[C@H](O)c2cc(O)cc3c2OCC(=O)N3)cc1 [OLODATEROL] | > 30 | 5.1 | 21 | > 30 | > 30 | > 30 | > 30 | > 30 | 0.58 | > 30 | > 30
CN(C)/N=N/c1[nH]cnc1C(N)=O [DACARBAZINE] | > 10 | > 10 | > 30 | > 30 | > 30 | > 10 | > 10 | > 10 | > 10 | > 10 | > 10
c1ccc([C@H]2CN3CCSC3=N2)cc1 [LEVAMISOLE] | > 30 | > 30 | > 30 | > 30 | > 30 | > 30 | > 30 | > 30 | > 30 | > 30 | > 30
N[C@@H]1[C@H]2CN(c3nc4c(cc3F)c(=O)c(C(=O)O)cn4-c3ccc(F)cc3F)C[C@@H]12 [TROVAFLOXACIN] | > 30 | > 30 | > 30 | > 30 | > 30 | > 30 | > 30 | > 30 | > 30 | > 30 | > 30
CC[C@H]1OC(=O)[C@H](C)[C@@H](O[C@H]2C[C@@](C)(OC)[C@@H](O)[C@H](C)O2)[C@H](C)[C@@H](O[C@@H]2O[C@H](C)C[C@H](N(C)C)[C@H]2O)[C@](C)(O)C[C@@H](C)CN(C)[C@H](C)[C@@H](O)[C@]1(C)O [AZITHROMYCIN] | > 10 | > 10 | > 30 | > 10 | > 30 | > 30 | > 30 | > 30 | > 10 | > 10 | > 30
CNC1Cc2ccccc2N(C)c2ccccc21 (stereo unspecified) [METAPRAMINE] | > 30 | > 30 | > 30 | > 30 | > 30 | > 30 | > 30 | > 30 | > 30 | > 30 | > 30
CN1C(=O)CCS(=O)(=O)C1c1ccc(Cl)cc1 (stereo unspecified) [CHLORMEZANONE] | > 10 | > 10 | > 30 | > 30 | > 30 | > 10 | > 10 | > 10 | > 10 | > 30 | > 10
O=P1(NCCCl)OCCCN1CCCl (stereo unspecified) [IFOSFAMIDE] | > 30 | > 30 | > 30 | > 30 | 12 | > 30 | > 30 | > 30 | > 30 | > 30 | > 30
CC(C)C[C@H]1C(=O)N2CCC[C@H]2[C@]2(O)O[C@](NC(=O)[C@@H]3C=C4c5cccc6[nH]c(Br)c(c56)C[C@H]4N(C)C3)(C(C)C)C(=O)N12 [BROMOCRIPTINE] | > 30 | > 30 | 5.5 | > 30 | > 30 | 13 | > 30 | > 30 | 9.23 | > 30 | 25
O=C(OCC(O)CO)c1ccccc1Nc1ccnc2cc(Cl)ccc12 (stereo unspecified) [GLAFENINE] | 28 | > 10 | 0.17 | > 30 | > 30 | 8.1 | > 30 | 23 | > 30 | > 30 | > 30
Nc1ccn([C@H]2CC[C@@H](CO)O2)c(=O)n1 [ZALCITABINE] | > 10 | > 10 | > 30 | > 30 | > 30 | > 10 | > 10 | > 10 | > 10 | > 10 | > 10
CCCCN1C[C@H](O)[C@@H](O)[C@H](O)[C@H]1CO | > 30 | > 30 | > 30 | > 30 | > 30 | > 30 | > 30 | > 30 | > 30 | > 30 | > 30
C[C@]12CCC(=O)C=C1CC[C@@H]1[C@@H]2[C@@H](O)C[C@@]2(C)[C@H]1CC[C@]2(O)C(=O)CO [HYDROCORTISONE] | > 10 | > 10 | > 30 | > 30 | > 30 | > 30 | > 30 | > 30 | > 10 | > 10 | > 30
